Target: SARS-CoV 3CL^pro (Severe acute respiratory syndrome coronavirus, UniProt P0C6X7)
Format: biochemical

For CC(C)C[C@H](NC(=O)[C@@H](NC(=O)[C@H](C)NC(=O)OCc1ccccc1)C(C)C)C(=O)N[C@H](C#N)CCC(N)=O [Cbz-AVLQ-CN], the “increase in potency over the other inhibitors tested” value was roughly 10 fold.
